Among the data in ChEMBL document CHEMBL1129715, “Synthesis and biological evaluation of hybrid molecules containing the pyrroloquinoline nucleus and DNA-minor groove binders” (1996) are CC50 values, retold here.

Converted amounts (≈) assume the structure as drawn.

Holding throughout (assay type): functional
The subject of one experiment is KB. As to the kind of experiment: In vitro cytotoxicity against KB cancer cell lines. The settings on record: Homo sapiens, read-out: TD50 (the source's name).
Another experiment deals with MCF7. Kind of experiment: In vitro cytotoxicity against MCF-7 cancer cell lines. To be noted: Homo sapiens, read-out: TD50 (the source's name).
In a further experiment the test system is L1210/Adr. Kind of experiment: In vitro cytotoxicity against L1210/Adr cancer cell lines. The settings on record: Mus musculus, read-out: TD50 (the source's name).
The subject of another experiment is HCT-116. Kind of experiment: In vitro cytotoxicity against HCT116 cancer cell lines. The settings on record: Homo sapiens, read-out: TD50 (the source's name).
In another experiment the test system is CHO. Kind of experiment: In vitro cytotoxicity against CHO cancer cell lines. To be noted: Cricetulus griseus, read-out: TD50 (the source's name).
A further experiment relates to L1210. As to the kind of experiment: In vitro cytotoxicity against L1210 cancer cell lines. The settings on record: Mus musculus, read-out: TD50 (the source's name).

In the case of `COCn1cc(NC(=O)c2cc(NC(=O)c3cc(NC4=CC5=NCCc6cn(C)c(c65)C4=O)cn3COC)cn2COC)cc1C(=O)NCCCN(C)C`, the CC50 turned out to be 0.4 µg/mL (≈ 0.538 µM) in the experiment with KB; 0.2 µg/mL (≈ 0.269 µM) with MCF7; 2.8 µg/mL (≈ 3.77 µM) in the experiment with L1210/Adr; 2.1 µg/mL (≈ 2.83 µM) with HCT-116; 0.9 µg/mL (≈ 1.21 µM) in the experiment with CHO; 3.3 µg/mL (≈ 4.44 µM) in the experiment with L1210.

Turning to `COCn1cc(NC2=CC3=NCCc4cn(C)c(c43)C2=O)cc1C(=O)NCCCN(C)C`, the CC50 amounted to 0.5 µg/mL (≈ 1.14 µM) with KB; 0.4 µg/mL (≈ 0.912 µM) in the experiment on MCF7; 2.5 µg/mL (≈ 5.7 µM) in the experiment on L1210/Adr; 5.8 µg/mL (≈ 13.2 µM) in the experiment on HCT-116; 49.2 µg/mL (≈ 112 µM) in the experiment with CHO; 3.8 µg/mL (≈ 8.67 µM) in the experiment with L1210.

As for `COCn1cc(NC(=O)c2cc(NC3=CC4=NCCc5cn(C)c(c54)C3=O)cn2COC)cc1C(=O)NCCCN(C)C`, the CC50 in the experiment on KB was found to be 1.9 µg/mL (≈ 3.22 µM); with MCF7, 0.5 µg/mL (≈ 0.846 µM); in the experiment on L1210/Adr, 3.8 µg/mL (≈ 6.43 µM); in the experiment on HCT-116, 6.1 µg/mL (≈ 10.3 µM); in the experiment with CHO, 17.5 µg/mL (≈ 29.6 µM); with L1210, 8.2 µg/mL (≈ 13.9 µM).

For `CCOC(=O)c1cc(NC2=CC3=NCCc4cn(C)c(c43)C2=O)cn1COC`, the CC50 in the experiment with KB is 0.5 µg/mL (≈ 1.31 µM); in the experiment on MCF7, 0.5 µg/mL (≈ 1.31 µM); with L1210/Adr, 1 µg/mL (≈ 2.61 µM); with HCT-116, 0.4 µg/mL (≈ 1.05 µM); in the experiment on CHO it was 0.7 µg/mL (≈ 1.83 µM); with L1210 it was 2 µg/mL (≈ 5.23 µM).

As for `CCOC(=O)c1cc(NC(=O)c2cc(NC(=O)c3cc(NC4=CC5=NCCc6cn(C)c(c65)C4=O)cn3COC)cn2COC)cn1COC`, the CC50 worked out at 1.4 µg/mL (≈ 2.04 µM) with KB; 4.7 µg/mL (≈ 6.84 µM) in the experiment on MCF7; 2.5 µg/mL (≈ 3.64 µM) with L1210/Adr; 5.2 µg/mL (≈ 7.57 µM) with HCT-116; 4.9 µg/mL (≈ 7.14 µM) in the experiment on CHO; 1.3 µg/mL (≈ 1.89 µM) in the experiment with L1210.

For `COc1cccc2c1C(=O)c1c(O)c3c(c(O)c1C2=O)C[C@@](O)(C(=O)CO)C[C@@H]3O[C@H]1C[C@H](N)[C@H](O)[C@H](C)O1` [DOXORUBICIN], the CC50 in the experiment with KB turned out to be 0.02 µg/mL (≈ 0.0368 µM); with MCF7, 0.2 µg/mL (≈ 0.368 µM); in the experiment on L1210/Adr, 0.3 µg/mL (≈ 0.552 µM); with HCT-116, 0.17 µg/mL (≈ 0.313 µM); in the experiment on CHO it was 0.05 µg/mL (≈ 0.092 µM); with L1210 it was 0.02 µg/mL (≈ 0.0368 µM).

Take `CCOC(=O)c1cc(NC(=O)c2cc(NC3=CC4=NCCc5cn(C)c(c54)C3=O)cn2COC)cn1COC`: the CC50 in the experiment on KB was found to be 2.3 µg/mL (≈ 4.3 µM); in the experiment with MCF7 it was 3.3 µg/mL (≈ 6.17 µM); in the experiment on L1210/Adr, 3.3 µg/mL (≈ 6.17 µM); with HCT-116, 1.7 µg/mL (≈ 3.18 µM); with CHO it was 4.2 µg/mL (≈ 7.86 µM); in the experiment with L1210, 4.9 µg/mL (≈ 9.17 µM).
